In ChEMBL document CHEMBL5223079, “Progress toward B-Cell Lymphoma 6 BTB Domain Inhibitors for the Treatment of Diffuse Large B-Cell Lymphoma and Beyond” (J Med Chem, 2021):
Values after ≈ are worked out from the molar mass of the structure shown. One block for each compound: values may come before it.

Experiments:
[1] = Aqueous solubility of the compound; assay type: physicochemical; details: buffer
[2] = Plasma clearance in Balb/C mouse at 1 mg/kg, po or 5 mg/kg, iv; assay type: ADME, organism-based; details: in vivo
[3] = test system: SUD4; assay: Antitumor activity against human SU-DHL-4 cells xenografted in mouse assessed as reduction in tumor weight at 5 mg/kg, iv treated every other day for 3 days; assay type: functional; design: scale not given: the % may be the effect or the level left; details: time 3 day
[4] = test system: SUD4; assay: Decrease in number of living cells in human SUDHL4 cells at 0.625 uM incubated for 48 hrs by flow cytometry (reference value: 48%); design: scale not given: the % may be the effect or the level left
[5] = test system: SUD4; assay: Antitumor activity against human SU-DHL-4 cells xenografted in mouse assessed as reduction in tumor volume at 5 mg/kg, iv treated every other day for 3 days; assay type: functional; design: scale not given: the % may be the effect or the level left; details: time 3 day
[6] = test system: SUD4; assay: Decrease in number of living cells in human SUDHL4 cells at […] incubated for 48 hrs by EdU flow cytometry assay (reference value: 48%); design: scale not given: the % may be the effect or the level left; details: dose 2.5 µM
[7] = test system: OCI-Ly7; assay: cells; details: Homo sapiens
[8] = Intrinsic clearance in mouse microsomes; assay type: ADME, Microsome
[9] = test system: SUD4; assay: Decrease in number of living cells in human SUDHL4 cells at 1.25 uM incubated for 48 hrs by EdU flow cytometry assay (reference value: 48%); design: scale not given: the % may be the effect or the level left
[10] = test system: SUD4; assay: Antitumor activity against CXCR4 human SU-DHL-4 cells xenografted in mouse assessed as increase in mRNA expression at 5 mg/kg, administered daily for 3days by RT-PCR analysis; assay type: functional
[11] = test system: Toledo; assay: cells; details: Homo sapiens
[12] = Intrinsic clearance in mouse liver; assay type: ADME, tissue-based; details: read-out: CLH
[13] = test system: SUD4; assay: cells; details: Homo sapiens, SU-DHL-4
[14] = test system: SUD4; assay: Antitumor activity against ATR human SU-DHL-4 cells xenografted in mouse assessed as increased in mRNA expression at 5 mg/kg, administered daily for 3days by RT-PCR analysis; assay type: functional
[15] = test system: SUD4; assay: Antitumor activity against CD69 human SU-DHL-4 cells xenografted in mouse assessed as increase in mRNA expression at 5 mg/kg, administered daily for 3days by RT-PCR analysis; assay type: functional
[16] = Metabolic stability in human liver microsome assessed as half life; assay type: ADME; details: liver microsomes
[17] = test system: Farage; assay: cells; details: Homo sapiens
[18] = test system: DOHH-2; assay: cells; details: Homo sapiens
[19] = Oral bioavailability in SCID mouse plasma at 10 mg/kg; assay type: ADME, organism-based; design: dose 10 mg/kg, route po
[20] = target: B-cell lymphoma 6 protein (Homo sapiens, UniProt P41182); assay: Inhibition of human BCL6 […] domain
[21] = Oral bioavailability in SCID mouse plasma at 100 mg/kg; assay type: ADME, organism-based
[22] = target: BCL-6/NCOR2 (Homo sapiens, UniProt P41182); assay: Inhibition of BCL6/SMRT protein protein interaction (unknown origin) by TR-FRET assay

SMILES: N#Cc1c(NCc2ccccc2)ccnc1Cl
- solubility [1]: 60 µM (≈ 14.6 µg/mL)

SMILES: N#Cc1c(NCC2CC2)ccnc1Cl
- solubility [1]: 300 µM (≈ 62.3 µg/mL)

SMILES: Cn1c(=O)n(C)c2cc(Nc3ncccc3C#N)ccc21
- solubility [1]: 300 µM (≈ 83.8 µg/mL)

SMILES: Cn1c(=O)n(C)c2cc(Nc3cc(SCc4ccccc4)ncn3)ccc21
- solubility [1]: < 30 µM

SMILES: CNC(=O)COc1cc2cc(Nc3nc(N4CCC(C(=O)N(C)C)CC4)ncc3Cl)cc(OC)c2n(C)c1=O
- IC50 [20]: ≤ 0.003 µM

The next lines start with results.

- clearance [2]: 1.2 L/h/kg
SMILES: C[C@@H]1CN(c2ncc(Cl)c(Nc3ccc4c(c3)n(CCC(C)(C)O)c(=O)n4C)n2)C[C@H](C)C1(F)F

- IC50 [7]: 1 µM
- microsomal CLint [8]: < 9.6 µL/min/mg
- IC50 [11]: 3.3 µM
- CLint scaled [12]: < 2.28 L/h/kg
- IC50 [13]: 1 µM
- half-life [16]: > 1 h
- IC50 [17]: 1 µM
- IC50 [18]: 1 µM
SMILES: COc1cc(Nc2nc(N3C[C@@H](C)N[C@@H](C)C3)ncc2F)ccc1NC(=O)c1ccc(C2=CCCC2)s1
- Activity [3]: 70%
- Activity [4]: 27%
- Activity [5]: 60%
- Activity [6]: 6.6%
- Activity [9]: 13%
- Activity [10]: >60%
- Activity [14]: >200%
- Activity [15]: >150%

- AUC [19]: 1860 nM·h
- Cmax [19]: 0.193 µM
- IC50 [20]: ≤ 0.003 µM
- Cmax [21]: 0.599 µM
SMILES: CNC(=O)COc1cc2cc(Nc3nc(N4C[C@H](C)C[C@H](C)C4)ncc3Cl)ccc2n(C)c1=O

- IC50 [22]: 19 µM
SMILES: COc1ccc(Nc2nc(NCC(C)C)ncc2F)cc1Cl
